Measured values taken from patent US9926330B2, “Inhibitors of IRAK4 activity” (MERCK SHARP & DOHME CORP., priority 2014, dated 2018).

What follows are compounds tested against GST tagged IRAK4 (Homo sapiens (Human), UniProt Q9NWZ3) (assay: IRAK4 Kinase Assay (IMAP fluorescence polarization)). Details: 0.5 nM GST tagged IRAK4, 100 nM fluorescent peptide substrate RP7030, 100 μM ATP, 30 minutes at 25° C., IMAP FP readout.
Chain of GST tagged IRAK4 (Q9NWZ3 whole entry): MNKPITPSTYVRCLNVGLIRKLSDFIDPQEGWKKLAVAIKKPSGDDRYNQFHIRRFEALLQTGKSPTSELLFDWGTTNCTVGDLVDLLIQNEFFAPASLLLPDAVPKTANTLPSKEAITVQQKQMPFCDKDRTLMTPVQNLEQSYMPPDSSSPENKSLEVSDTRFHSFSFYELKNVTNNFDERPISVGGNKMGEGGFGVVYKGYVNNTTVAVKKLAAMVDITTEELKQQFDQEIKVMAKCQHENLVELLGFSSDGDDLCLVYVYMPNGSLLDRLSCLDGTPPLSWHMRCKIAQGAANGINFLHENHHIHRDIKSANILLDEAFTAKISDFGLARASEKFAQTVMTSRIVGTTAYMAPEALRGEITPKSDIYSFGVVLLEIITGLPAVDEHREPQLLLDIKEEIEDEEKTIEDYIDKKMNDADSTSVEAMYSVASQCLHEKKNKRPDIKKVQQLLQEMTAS
Assay type: biochemical
Procedure: The kinase activity of IRAK4 is determined by its ability to catalyze the phosphorylation of a fluorescent polypeptide substrate. The extent of phosphorylation is measured using the IMAP technology (Molecular Devices) where the phosphorylated fluorescent substrate binds to the large M(III)-based nanoparticles which reduces the rotational speed of the substrate and thus increases its fluorescent polarization (FP).
20 μL reaction mixture contains 10 mM TriHCl, pH 7.2, 0.5 nM GST tagged IRAK4 (SignalChem), 100 nM fluorescent peptide substrate (RP7030, Molecular Devices), 100 μM ATP, 1 mM DDT, 1 mM MgCl2, and 0.01% Tween 20. The reaction is initiated by the addition of ATP. After incubation for 30 minutes at 25° C., 60 μL of Progressive IMAP Reagent (Molecular Devices) is added to stop the reaction. Change in RP7030's FP is determined by a FP reader (Analyst HT, LJL BioSystems).
`CN(C)[C@H]1CC[C@H](Nc2ncnc3ccc(CCO)cc23)CC1` [Example 5-1, 2-(4-(((trans)-4-(dimethylamino)cyclohexyl)amino)quinazolin-6-yl)ethan-1-ol] gave an IC50 of 17 nM.
In the case of `Cc1ccc2ncnc(N[C@H]3CC[C@H](NC(C)C)CC3)c2c1` [Example 2-24, trans-N-(1-methylethyl)-N′-(6-methylquinazolin-4-yl)cyclohexane-1,4-diamine], the IC50 is reported as 44 nM.
For `OCCCc1ccc2ncnc(N[C@H]3CC[C@H](N4CCOCC4)CC3)c2c1` [Example 5-2, 3-{4-[(trans-4-morpholin-4-ylcyclohexyl)amino]quinazolin-6-yl}propan-1-ol], the IC50 was 10 nM.
`Cc1ccc2ncnc(N[C@H]3CC[C@H](NCc4ccnn4C)CC3)c2c1` [Example 2-26, trans-N-[(1-methyl-1H-pyrazol-5-yl)methyl]-N′-(6-methylquinazolin-4-yl)cyclohexane-1,4-diamine] showed an IC50 of 47 nM.
Compound `Cc1ccc2ncnc(N[C@H]3CC[C@H](N(C)C)CC3)c2c1` [Example 1-2, trans-N,N-dimethyl-N′-(6-methylquinazolin-4-yl)cyclohexane-1,4-diamine] has an IC50 of 19 nM.
`CC(O)c1ccc2ncnc(N[C@H]3CC[C@H](N(C)C)CC3)c2c1` (stereo partly drawn) [Example 5-4, 1-(4-{[trans-4-(dimethylamino)cyclohexyl]amino}quinazolin-6-yl)ethanol] showed an IC50 of 29 nM.
`Cc1ccc2ncnc(NC3CCC(N4CCC(C(F)(F)F)CC4)CC3)c2c1` (stereo not drawn) [Example 2-11, 6-methyl-N-{4-[4-(trifluoromethyl)piperidin-1-yl]cyclohexyl}quinazolin-4-amine] showed an IC50 of 88 nM.
Compound `CN(C)[C@H]1CC[C@H](Nc2ncnc3ccc(C(F)(F)F)cc23)CC1` [Example 1-6, trans-N,N-dimethyl-N′-[6-(trifluoromethyl)quinazolin-4-yl]cyclohexane-1,4-diamine] has an IC50 of 9 nM.
Compound `OCCCCc1ccc2ncnc(N[C@H]3CC[C@H](N4CCOCC4)CC3)c2c1` [Example 5-3, 4-{4-[(trans-4-morpholin-4-ylcyclohexyl)amino]quinazolin-6-yl}butan-1-ol] has an IC50 of 68 nM.
For `CC(C)c1ccc2ncnc(NC3CCC(N(C)C)CC3)c2c1` (stereo not drawn) [Example 4-2, N,N-dimethyl-N′-[6-(1-methylethyl)quinazolin-4-yl]cyclohexane-1,4-diamine], the IC50 was 16 nM.
With `Cc1ccc2ncnc(N[C@H]3CC[C@H](N[C@@H](C)CS(C)(=O)=O)CC3)c2c1` [Example 2-31, trans-N-[(1S)-1-methyl-2-(methylsulfonyl)ethyl]-N′-(6-methylquinazolin-4-yl)cyclohexane-1,4-diamine] the IC50 was 56 nM.
In the case of `Cc1ccc2ncnc(N[C@H]3CC[C@H](NCc4cccs4)CC3)c2c1` [Example 2-20, trans-N-(6-methylquinazolin-4-yl)-N′-(thiophen-2-ylmethyl)cyclohexane-1,4-diamine], the IC50 is reported as 45 nM.
Compound `Cc1ccc2ncnc(N[C@H]3CC[C@H](N[C@@H](C)CC(F)(F)F)CC3)c2c1` [Example 2-22, trans-N-(6-methylquinazolin-4-yl)-N′-[(1S)-3,3,3-trifluoro-1-methylpropyl]cyclohexane-1,4-diamine] has an IC50 of 67 nM.
`Cc1ccc2ncnc(N[C@H]3CC[C@H](NCCC(F)(F)F)CC3)c2c1` [Example 2-28, trans-N-(6-methylquinazolin-4-yl)-N′-(3,3,3-trifluoropropyl)cyclohexane-1,4-diamine] was tested, and the IC50 was 25 nM.
Work on `Cc1ccc2ncnc(N[C@H]3CC[C@H](N4CCS(=O)(=O)CC4)CC3)c2c1` [Example 6-1, 4-((trans)-4-((6-methylquinazolin-4-yl)amino)cyclohexyl)thiomorpholine-1,1-dioxide] yielded an IC50 of 623 nM.
